Experimental data taken from US12377117B2, “Hyaluronic acid nanoparticles comprising NADPH oxidases inhibitors and uses in treating cancer” (priority 2019, dated 2025).
“And” between values parts separate entries of the source, which are not always exact repeats. Equal entries are not always repeated. “Also recorded” adds a separate entry of the source.

How the values were obtained:
[1] = system: human breast cancer MCF-7 cells; assay: Cell proliferation assay on MCF-7 cells; assay type: cell-based; details: MCF7, read-out: IC50, growth inhibition
[2] = system: Breast patient VII PDX tumors; assay: RNAseq gene expression profiles of PDX tumors after five i.v. treatments; assay type: in vivo, nude mice
Experimental: ATFB was increased by HANP/GKT831 but decrease in GKT831 treated tumor.
Biomaterial low molecular weight HA generated nanoparticle drug carrier has unique biological activities compared with other nanoparticle drug carriers. […] To understand molecular mechanisms by which HANP/GKT831 enhanced responses to DNA damaging drug and radiation, gene expression profiles of the breast patient VII PDX tumors following five i.v. treatments were analyzed using RNAseq assay. […] Since human immune cells express NOX2 subtype, HANP/GKT831 treatment may not affect tumor immune responses but GKT831 treatment may decrease immune responses in tumors. Furthermore, HANP/GKT831 inhibited the expression of mitochondrial electron transport and ATP production genes, which promote tumor cell death (FIG. 7B). […] Therefore, it is likely that those differences in gene regulation contributed to a strong chemo- and radiotherapy enhancement effect of HANP/GKT831.

[3] = system: Breast patient IX PDX tumors; assay: Breast patient IX PDX model, combination with Dox; assay type: in vivo, nude mice
[4] = system: Breast patient VII PDX tumors; assay: Breast patient VII PDX model, combination with DOX; assay type: in vivo, nude mice
Experimental: Nude mice bearing orthotopic the Breast patient VII PDX tumors received 5 mg/kg equivalent dose of GKT831 or HANP/GKT831 combined with 5 mg/kg of DOX via the tail vein once a week for 5 administrations.
Therapy resistant breast cancer PDX models were established in nude mice from surgically resected tumor tissues of both hormonal receptor positive (HR+) and triple negative breast cancer patients. Patient VII PDX model was derived tumor from HR+ breast cancer tissue that progressed after neoadjuvant therapy with Dox+ Taxol and adjuvant radiotherapy (50 Gy). Patient IX PDX model was derived from a breast cancer tissue that was resistant to Dox/cyclophosphamide/Taxol therapy and 50 Gy of pre-operative radiation therapy. Both patients developed recurrent tumors and deceased 23 and 25 months after surgery. […] CD44 is the cellular receptor for HA and therefore, HANP can target to CD44+ tumor and stromal cells. […] The targeted delivery of near-infrared (NIR) 830 dye labeled HANPs in the breast cancer PDX models were examined using optical imaging and histological analysis. […] Accumulation of HANPs in the liver was further examined.
The inhibition of NOX1/4 on tumor growth and sensitization of therapeutic responses to a chemotherapy drug, DOX, were examined in the breast Patient VII and Patient IX PDX models growing in the mammary fat pad of nude mice.

[5] = system: ROS generation in MCF-7 cells (NOX1/4 activity); assay: ROS production in MCF-7 cells (DCFDA assay); assay type: cell-based, human

IC50 [1] [µM]	Structure (SMILES)	ATFB expression ([2]; PDX tumors (FIG. 7B))	expression of mitochondrial electron transport and ATP production genes ([2]; PDX tumors (FIG. 7B))	expression of mitochondrial electron transport and ATP production genes ([2]; PDX tumors (FIG. 7B), listed as GKT 831)	NOX2 gene expression ([2]; patient VII PDX tumors)	level of NOX4 gene expression ([2]; patient VII PDX tumors)	effect on tumor growth [3]	anti-tumor effect / tumor growth inhibition [4]	ROS generation [5]	increase in tumor volume compared the starting tumor volume ([4]; 5 mg/kg i.v. weekly x5) [%]	tumor growth inhibition compared to no treatment control ([4]; single agent treatment)
30	CN(C)c1cccc(-c2c3c(=O)n(-c4ccccc4Cl)[nH]c3cc(=O)n2C)c1 [GKT831, 2-(2-chlorophenyl)-4-(3-(dimethylamino)phenyl)-5-methyl-1,2-dihydro-3H-pyrazolo[4,3-c]pyridine-3,6(5H)-dione]	decrease	increased MT-ND and MT-CO2 expression	upregulated the expression of some of those genes	downregulated	did not significantly affect	did not show a significant difference; also recorded: did not show any effect on tumor growth	did not show a significant difference	did not show obvious ROS reduction	–	–
–	COc1cccc2c1C(=O)c1c(O)c3c(c(O)c1C2=O)C[C@@](O)(C(=O)CO)C[C@@H]3O[C@H]1C[C@H](N)[C@H](O)[C@H](C)O1 [DOX, doxorubicin]	–	–	–	–	–	–	–	–	150	~40% and 60%
